Laboratory results as given in patent US9192552B2, “Personal care compositions with improved solubility of a solid UV active” (priority 2011, dated 2015).
Like-named read-outs stand apart in the source and are kept apart here.

Key:
[1] = Solvency test: solubility of bis-ethylhexyloxyphenol methoxyphenyl triazine (bemotrizinol) in solvent, visible crystals after storage
Experimental: (§1) In the testing provided below, “soluble” (or “solubilize”), in relation to the solubility of a solid solute being tested, means that no visible crystals may be seen after a prescribed storage period at a storage condition. The storage period can vary. Suitable storage periods include about 24 hours, about 1 week, and about 30 days. Suitable storage conditions include ambient conditions or cold storage at 5° C. (approximately 1 atm). In certain embodiments, solubility may be determined after a 24 hour storage period at ambient conditions. In other embodiments, solubility may be determined after 20 days in cold storage. Other testing parameters may include storage for prolonged time periods (e.g., 30 day, 50 days, 60 days, 90 days) and at variable temperatures (e.g., 5° C., 50° C.).
The solvency of an isosorbide diester within the scope of the present invention was tested against two conventional, industry standard solvents. […] Solubility was also evaluated for samples stored for 7 day at 5° C. followed by equilibration to ambient conditions.

[2] = Solvency test: solubility of butyl methoxydibenzoylmethane (avobenzone) in solvent, visible crystals after storage
Experimental: as §1
The solvency of an isosorbide diester within the scope of the present invention was tested against two conventional, industry standard solvents. […] Various ratios of the solute:solvent were prepared by mixing solvents and the solid sunscreen (solute) and heating to 70° C. Upon reaching 70° C., the examples may be mixed for about 10 minutes. The mixtures are placed in a covered vial and cooled to the storage temperature. Solubility was evaluated for samples stored 24 hours after mixing at room temperature. […]

[3] = solute bemotrizinol (Tinosorb S), 24 hour rest at Ambient Conditions
[4] = solute bemotrizinol (Tinosorb S), 30 day storage at 5° C.
[5] = solute avobenzone (PARSOL 1789), 24 hour rest at Ambient Conditions

SMILES	Solubility at Solute:Solvent Ratio 1:4 [1]	Solubility at Solute:Solvent Ratio 1:6 [1]	Solubility at Solute:Solvent Ratio 1:8 [1]	Solubility at Solute:Solvent Ratio 1:2 [2]	Solubility at Solute:Solvent Ratio 1:3 [2]	Solubility at Solute:Solvent Ratio 1:4 [2]	Solubility at Solute:Solvent Ratio 1:3 [1, 3]	Solubility at Solute:Solvent Ratio 1:4 [1, 3]	Solubility at Solute:Solvent Ratio 1:6 [1, 3]	Solubility at Solute:Solvent Ratio 1:8 [1, 3]	Solubility at Solute:Solvent Ratio 1:3 [1, 4]	Solubility at Solute:Solvent Ratio 1:6 [1, 4]	Solubility at Solute:Solvent Ratio 1:8 [1, 4]	Solubility at Solute:Solvent Ratio 14 [1, 4]	Solvency compared with the industry leading solvents ([1]; solute bemotrizinol, versus isopropyl lauroyl sarcosinate and C12-15 alkyl benzoate)	Solubility at Solute:Solvent Ratio 1:3 [2, 5]	Solubility at Solute:Solvent Ratio 1:4 [2, 5]	Solubility at Solute:Solvent Ratio 1:4 ([2]; solute avobenzone (PARSOL 1789), 30 day storage at 5° C.)	Solvency compared with the industry leading solvents ([2]; solute avobenzone, versus isopropyl lauroyl sarcosinate and C12-15 alkyl benzoate)
CCCCCCCCCCCC(=O)N(C)CC(=O)OC(C)C [Isopropyl lauroyl sarcosinate, isopropyl lauroyl sarcosinate, reference compound]	S	S	S	S	S	S	–	–	–	–	–	–	–	–	–	–	–	–	–
CCCCCCCC(=O)OC1COC2C(OC(=O)CCCCCCC)COC12 (stereo not shown) [Isosorbide dicaprylate, isosorbide dicaprylate]	–	–	–	–	–	–	S	S	S	S	S	S	S	S	superior to the industry leading solvents	S	S	S	equivalent to the industry leading solvents
